This note sets out measurements from patent publication US20200010910A1, “Cytotoxic Chemotherapy-Based Predictive Assays for Acute Myeloid Leukemia” (The Regents of The University of California, priority 2017, published 2020).

Common to all, as to type: cell-based
Assay [1] concerns A2780 and A2780ADR ovarian cancer cell lines. Put plainly: doxorubicin-DNA adducts by AMS. The settings on record: 10 nM or 100 nM DOX 4 h, then 20 hr drug-free. The procedure:
In order to assess the formation and loss of intracellular doxorubicin-DNA adducts, ovarian cancer cells were treated with Dox in culture. For doxorubicin-treated cells, one million ovarian cancer cells were seeded in 60-mm dishes the day before treatment and allowed to attach overnight. Similar to the ARA-C bolus protocol, the ovarian cancer cell lines were treated with a low (10 nM) or a high (100 nM) dose of unlabeled DOX supplemented with 0.8 nM of ^14C-labeled DOX (100 dpm/mL, 0.39-3.7 mCi/mmol specific activity (American Radiolabeled Chemicals, Inc.) for 4 h followed by an additional 20 hr of culturing in drug-free media (FIG. 25C). At 24 hrs, the cells were pelleted and washed. DNA was then isolated from these cells using the Qiamp DNA Blood Kit followed by two phenol and one chloroform extractions to remove intercalated DOX according to a published protocol (19). This protocol left intact covalent DOX-DNA adducts that are known to be formed as a consequence of DOX metabolism. Removal of intercalated DOX is important, since it is noncovalently bound and would otherwise partially diffuse out from the DNA sample causing variable results. Ten micrograms of DNA from each sample was converted to graphite and the ratios of ^14C to total C were measured by AMS. AMS was performed on triplicate DNA samples and the results were converted to drug-DNA adducts per ten million nucleotides.

Assay [2] has as its system A2780. Put plainly: CellTiter 96 Aqueous cell proliferation assay. Conditions: Homo sapiens, 72 hr continuous treatment. From the text: (§1) Correlation of IC50 to the AML induction drugs Dox and Ara-C were first performed with the adherent bladder cancer cell lines 5637 and 5637R for cytarabine and with the adherent ovarian cancer cell lines A2780 and A2780ADR for doxorubicin. Cell lines 5637 and 5637R (Ara-C resistant) have been described previously (20). A2780 and A2780ADR (doxorubicin resistant) were purchased from Sigma-Aldrich and grown as recommended. IC50 values were obtained by plating 4000 cells per well in 96-well plates the night before treatment, and then allowing the cells to adhere over night. Leukemia cell lines capable of continuous proliferation in suspension and having differential sensitivities to Dox and Ara-C were also obtained for correlation analysis. MV-4-11 (acute monocytic leukemia) and THP-1 (acute monocytic leukemia) human cell lines were purchased from American Type Culture Collection (ATCC, Manassas, Va.). MOLM-13 (acute myeloid leukemia) human cells were purchased from AddexBio (San Diego, Calif.). For leukemia cell lines (suspension cultures), approximately 8,000-11,000 cells were seeded per well in 96-well plates the day of treatment. MV-4-11 cells were grown in IMDM (Iscove's Modified Dulbecco's Media) with 10% FBS, 100 U/ml penicillin, and 100 μg/ml streptomycin. THP-1, A2780, and A2780ADR cells were grown in RPMI-1640 media with 10% FBS, 100 U/ml penicillin, and 100 μg/ml streptomycin. 5637, 5637R, and MOLM-13 cells were grown in RPMI-1640 media with 20% FBS, 100 U/ml penicillin, and 100 μg/ml streptomycin. All cells were cultured at 37° C. in a humidified incubator. The cells were then incubated with increasing doses of cytarabine or doxorubicin continuously for 72 hours. IC50 values were determined using the CellTiter 96 Aqueous Non-Radioactive Cell Proliferation Assay (Promega). […] As shown, 5637 and 5673R have differential sensitivity to cytarabine, while A2780 and A2780ADR have differential sensitivity to doxorubicin. The leukemic suspension cell lines also have differential sensitivity to these two drugs.

For assay [3], the system named is MV-4-11. Kind of assay: CellTiter 96 Aqueous cell proliferation assay. Conditions: Homo sapiens, MV4-11, 72 hr continuous treatment.
Description: as §1

The test system of assay [4] is A2780ADR. Kind of assay: CellTiter 96 Aqueous cell proliferation assay. The settings on record: A2780 ADR, 72 hr continuous treatment.
Description: as §1

In assay [5] the test system is MOLM-13. Kind of assay: CellTiter 96 Aqueous cell proliferation assay. The settings on record: Homo sapiens, 72 hr continuous treatment.
Description: as §1

Assay [6] has as its system THP-1. Put plainly: CellTiter 96 Aqueous cell proliferation assay. Conditions: Homo sapiens, 72 hr continuous treatment.
Description: as §1

Consider `COc1cccc2c1C(=O)c1c(O)c3c(c(O)c1C2=O)C[C@@](O)(C(=O)CO)C[C@@H]3O[C@H]1C[C@H](N)[C@H](O)[C@H](C)O1` [doxorubicin], for which, in assay [1], the “doxorubicin-DNA adducts in resistant A2780ADR compared to sensitive A2780” value is listed as “fewer doxorubicine-DNA adducts”. In addition, the IC50 came out at 21 nM in assay [2]; 3 nM in assay [3]; 12 µM in assay [4]; 4 nM in assay [5]; 24 nM in assay [6].
